This is an account of results in patent publication US8993622B2, “Antiviral compounds” (Eirium AB, priority 2010, dated 2015).

One series relates to Ad5. Briefly: microbe, parasite or virus in culture. It is filed as cell-based, human adenovirus. Conditions: for Inh. (% inhibition of Ad5 at 15 μM): Ad5, 15 μM (Table 2); for inhibition at 5 µM: A549, read-out: % Inh. at 5 μM; for inhibition at 20 µM: A549, read-out: % Inh. at 20 μM; for activity compared with A02 (inhibition of adenovirus replication): second generation inhibitors, Table 4; for EC50: A549; for effect on the replication of Ad5 (QPCR): A549 cells.

The test system of a further series is cells. In words: Cellular toxicity of select compounds (% dead cells, CC50). It is filed as cell-based.
[1] abbreviates: Human adenovirus sp., A549, read-out: Inh. (% inhibition of Ad5 at 15 μM).
The mark [2] stands for this setting: unidentified adenovirus, A549, read-out: % Inh. at 15 μM.

Read-outs that look alike come from different tables or passages of the source.

With `CCOC(=O)c1cccc(NC(=O)c2ccccc2NC(=O)c2ccccc2)c1` [Compound 7a, 4-Ethyl 3-[(2-benzoylamino)benzoylamino]-benzoate], the inhibition at 15 µM in the series with Ad5 (setting [1]) came out at 0%.
Turning to `CCOC(=O)c1ccc(NC(=O)c2ccccc2NC(=O)c2ccccc2)cc1` [Compound 7b, Ethyl 4-[(2-benzoylamino)benzoylamino]-benzoate], the “Inh. (% inhibition of Ad5 at 15 μM)” value in the series with Ad5 is given as 8%.
Same read-out and setting: the value for `CCOC(=O)c1ccccc1NC(=O)c1cccc(NC(=O)c2ccccc2)c1` [Compound 7c, Ethyl 2-[(3-benzoylamino)benzoylamino]-benzoate] was 25%.
The same measure, in the same setting: the value for `CCOC(=O)c1ccccc1NC(=O)c1ccc(NC(=O)c2ccccc2)cc1` [Compound 7d, Ethyl 2-[(4-benzoylamino)benzoylamino]-benzoate] was 15%; that for `O=C(O)c1cccc(NC(=O)c2ccccc2NC(=O)c2ccccc2)c1` [Compound 8a, 3-[(2-benzoylamino)benzoylamino]-benzoic acid] was 8%; that for `O=C(O)c1ccc(NC(=O)c2ccccc2NC(=O)c2ccccc2)cc1` [Compound 8b, 4-[(2-benzoylamino)benzoylamino]-benzoic acid] was 8%.
As for `O=C(Nc1cccc(C(=O)Nc2ccccc2C(=O)O)c1)c1ccccc1` [Compound 8c, 2-[(3-benzoylamino)benzoylamino]-benzoic acid], in the series on Ad5, the “Inh. (% inhibition of Ad5 at 15 μM)” value is 39%.
Regarding `O=C(Nc1ccc(C(=O)Nc2ccccc2C(=O)O)cc1)c1ccccc1` [Compound 8d, 2-[(4-benzoylamino)benzoylamino]-benzoic acid], the inhibition at 15 µM in the series on Ad5 (setting [1]) is 47%.
For `O=C(Nc1ccccc1C(=O)Nc1ccccc1)c1ccccc1` [Compound 11, 2-Benzoylamino-N-phenyl-benzamide], in the series on Ad5 (setting [1]), the inhibition at 15 µM was 18%.
Consider `Cc1ccc(C(=O)Nc2ccccc2C(=O)Nc2ccccc2C(=O)O)cc1` [Compound 12c, 2-[[2-(4-Methyl-benzoylamino)benzoyl]amino]-benzoic acid], for which, in the series on Ad5 (Human adenovirus sp.), the inhibition at 5 µM amounted to 89.2% and the inhibition at 20 µM turned out to be 98.5%.
The matching figures for `NC(=O)c1ccccc1NC(=O)c1cccc(NC(=O)c2ccccc2)c1` [Compound 12d, 2-[[3-(Benzoylamino)benzoyl]amino]-benzamide]: 51.1% and 44.2%.
For `Cc1ccccc1C(=O)Nc1cccc(C(=O)Nc2ccccc2C(=O)O)c1` [Compound 12e, 2-[[3-(2-Methyl-benzoylamino)benzoyl]amino]-benzoic acid], in that order: 44% and 55.8%.
For `COc1ccc(C(=O)Nc2ccccc2C(=O)Nc2ccccc2C(=O)O)cc1` [Compound 12f, 2-[[2-(4-Methoxy-benzoylamino)benzoyl]amino]-benzoic acid], in the series with Ad5 (Human adenovirus sp.), the inhibition at 5 µM amounted to 25.2% and the inhibition at 20 µM is 96.5%.
The matching figures for `Cc1ccc(C(=O)Nc2ccccc2C(=O)Nc2ccccc2C)cc1` [Compound 12g, 4-Methyl-N-{2-[(2-methylphenyl)carbamoyl]phenyl}-benzamide]: 24.5% and 22.2%.
Consider `CC(=O)Nc1ccccc1C(=O)Nc1ccccc1C(=O)O` [Compound 17a, 2-[2-(Acetylamino)benzoylamino]benzoic acid], for which the inhibition at 5 µM in the series with Ad5 (unidentified adenovirus) came out at 4 ± 11%. The inhibition at 15 µM with Ad5 (setting [2]) stood at 24 ± 14%.
For the compound `CS(=O)(=O)Nc1ccccc1C(=O)Nc1ccccc1C(=O)O` [Compound 17b, 2-[2-(Methanesulfonylamino)benzoylamino]benzoic acid], in the series on Ad5 (unidentified adenovirus), the inhibition at 5 µM stood at 0%. In addition, in the series with Ad5 (setting [2]), the inhibition at 15 µM amounted to 23 ± 12%.
For `Cc1ccc(S(=O)(=O)Nc2ccccc2C(=O)Nc2ccccc2C(=O)O)cc1` [Compound 17c, 2-[2-(p-Toluenesulfonylamino)benzoylamino]benzoic acid], in that order: 2 ± 24% and 8 ± 35%.
The matching figures for `CC(C)(C)C(=O)Nc1ccccc1C(=O)Nc1ccccc1C(=O)O` [Compound 17d, 2-[2-(Trimethylacetylamino)benzoylamino]benzoic acid]: 45 ± 7% and 52 ± 18%.
As to `O=C(O)c1ccccc1NC(=O)c1ccccc1NC(=O)C1CCCCC1` [Compound 17e, 2-[[2-(Cyclohexanecarboxylamino)benzoyl]amino]benzoic acid], in the series with Ad5, the “activity compared with A02 (inhibition of adenovirus replication)” value was “diminished but not abolished activity”. For the same compound, the inhibition at 5 µM in the series on Ad5 (unidentified adenovirus) worked out at 20 ± 1%. In the series on Ad5 (setting [2]), the inhibition at 15 µM was found to be 55 ± 11%.
For `O=C(O)CCC(=O)Nc1ccccc1C(=O)Nc1ccccc1C(=O)O` [Compound 17f, 2-[2-(4-Carboxybutanoylamido)benzoyl]aminobenzoic acid], in the series with Ad5 (unidentified adenovirus), the inhibition at 5 µM came out at 0%. Also, the inhibition at 15 µM in the series on Ad5 (setting [2]) is 0%.
Usually EC50 stands for the concentration at which the effect is half-maximal. Turning to `O=C(O)c1ccccc1NC(=O)c1ccccc1NCc1ccccc1` [Compound 17g, 2-[2-(Benzylamino)benzoylamino]benzoic acid], in the series on cells, the “Toxicity at 30 μM (% dead cells after 24 h)” value amounted to 6 ± 10% and the “Toxicity at 60 μM (% dead cells after 24 h)” value is reported as 11 ± 13%. For the same compound, the “activity compared with A02 (inhibition of adenovirus replication)” value in the series with Ad5 was “diminished but not abolished activity”. Also, in the series on Ad5 (unidentified adenovirus), the EC50 was found to be 11.4 µM and the inhibition at 5 µM came to 44 ± 17%. The inhibition at 15 µM in the series on Ad5 (setting [2]) was 79 ± 5%.
As for `O=C(Nc1ccccc1C(=O)Nc1ccccc1C(=O)O)c1ccccc1F` [Compound 17h, 2-[2-(2-Fluorobenzoylamino)-benzoylamino]benzoic acid], in the series on cells, the “Toxicity at 30 μM (% dead cells after 24 h)” value worked out at 17 ± 9% and the “Toxicity at 60 μM (% dead cells after 24 h)” value is 29 ± 12%. Moreover, in the series with cells (Table 7), the “cellular toxicity compared with A02” value is listed as “slightly more toxic than A02”. For the same compound, in the series on Ad5, the “activity compared with A02 (inhibition of adenovirus replication)” value was “statistically significantly higher activity than A02”. In addition, in the series on Ad5 (unidentified adenovirus), the EC50 amounted to 2.3 µM and the inhibition at 5 µM was 96 ± 1%. Further, in the series on Ad5 (setting [2]), the inhibition at 15 µM amounted to 96 ± 1%.
On to `O=C(Nc1ccccc1C(=O)Nc1ccccc1C(=O)O)c1cccc(F)c1` [Compound 17i, 2-[2-(3-Fluorobenzoylamino)-benzoylamino]benzoic acid], for which the inhibition at 5 µM with Ad5 (unidentified adenovirus) came out at 41 ± 32%. In the series on Ad5 (setting [2]), the inhibition at 15 µM turned out to be 0%.
As for `O=C(Nc1ccccc1C(=O)Nc1ccccc1C(=O)O)c1ccc(F)cc1` [Compound 17j, 2-[2-(4-Fluorobenzoylamino)-benzoylamino]benzoic acid], in the series on cells, the “Toxicity at 30 μM (% dead cells after 24 h)” value is given as 14 ± 10% and the “Toxicity at 60 μM (% dead cells after 24 h)” value is listed as 10 ± 10%. In the series on Ad5 (unidentified adenovirus), the EC50 came out at 3.5 µM and the inhibition at 5 µM was found to be 76 ± 10%. Besides, the inhibition at 15 µM with Ad5 (setting [2]) was 95 ± 1%.
Take `O=C(Cc1ccccc1)Nc1ccccc1C(=O)Nc1ccccc1C(=O)O` [Compound 17k, 2-[2-(Phenylacetylamino)benzoylamino]benzoic acid]: in the series on Ad5 (unidentified adenovirus), the inhibition at 5 µM worked out at 32 ± 19%. Also, the inhibition at 15 µM in the series on Ad5 (setting [2]) was found to be 21 ± 12%.
The matching figures for `O=C(O)Cc1ccccc1NC(=O)c1ccccc1NC(=O)c1ccccc1` [Compound 23, 2-[2-(benzoylamino)benzoylamino]phenylacetic acid]: 0% and 0%.
Regarding `O=C(Cc1ccccc1NC(=O)c1ccccc1)Nc1ccccc1C(=O)O` [Compound 28, 2-[2-(benzoylamino)phenylacetylamino]benzoic acid], the inhibition at 5 µM in the series with Ad5 (unidentified adenovirus) is 0%. Moreover, the inhibition at 15 µM with Ad5 (setting [2]) is 0%.
With `O=C(Nc1ccccc1C(=O)Nc1cc(Cl)ccc1C(=O)O)c1ccccc1F` [Compound 35a, 2-[2-(2-fluorobenzoylamino)-benzoylamino]-4-chlorobenzoic acid], the inhibition at 5 µM in the series on Ad5 (unidentified adenovirus) came out at 0%. The inhibition at 15 µM in the series with Ad5 (setting [2]) is 61%.
The matching figures for `O=C(Nc1ccccc1C(=O)Nc1ccc(Cl)cc1C(=O)O)c1ccccc1F` [Compound 35b, 2-[2-(2-fluorobenzoylamino)benzoylamino]-5-chlorobenzoic acid]: 0% and 0%.
In the case of `COc1ccc(C(=O)O)c(NC(=O)c2ccccc2NC(=O)c2ccccc2F)c1` [Compound 35c, 2-[2-(2-fluorobenzoylamino)-benzoylamino]-4-methoxybenzoic acid], the inhibition at 5 µM in the series with Ad5 (unidentified adenovirus) is 79 ± 21%. Moreover, in the series with Ad5 (setting [2]), the inhibition at 15 µM was found to be 95 ± 22%.
The matching figures for `COc1ccc(NC(=O)c2ccccc2NC(=O)c2ccccc2F)c(C(=O)O)c1` [Compound 35d, 2-[2-(2-fluorobenzoylamino)-benzoylamino]-5-methoxybenzoic acid]: 28 ± 20% and 78 ± 3%.
For `O=C(Nc1ccccc1C(=O)Nc1cc(F)c(F)cc1C(=O)O)c1ccccc1F` [Compound 35e, 2-[2-(2-fluorobenzoylamino)-benzoylamino]-4,5-difluorobenzoic acid], in that order: 0% and 0%.
On to `O=C(Nc1cc(Cl)ccc1C(=O)Nc1ccccc1C(=O)O)c1ccccc1F` [Compound 35f, 2-[4-chloro-2-(2-fluorobenzoylamino)-benzoylamino]benzoic acid], for which, in the series with cells, the “Toxicity at 30 μM (% dead cells after 24 h)” value amounted to 14 ± 5% and the “Toxicity at 60 μM (% dead cells after 24 h)” value is recorded as 25 ± 8%. Besides, in the series with Ad5 (unidentified adenovirus), a half-maximal response (EC50) required 4.14 µM and the inhibition at 5 µM worked out at 57 ± 5%. The inhibition at 15 µM in the series with Ad5 (setting [2]) stood at 78 ± 2%.
Turning to `O=C(Nc1ccccc1C(=O)O)c1ccccc1` [Compound A01, reference compound], the “effect on the replication of Ad5 (QPCR)” value in the series on Ad5 was “Neither the smaller (A01) nor the larger (A03) molecule showed any anti-adenoviral effect”.
Same read-out and setting: the value for `O=C(Nc1ccccc1C(=O)Nc1ccccc1C(=O)Nc1ccccc1C(=O)O)c1ccccc1` [Compound A03, reference compound] was “Neither the smaller (A01) nor the larger (A03) molecule showed any anti-adenoviral effect”.
